Reference: patent publication US20250346613A1, “BORIC ACID PROTEASOME INHIBITOR AND USE THEREOF” (ARTIVILA BIOPHARMA, priority 2022, published 2025)

How the values were obtained:
Assay type in all cases: cell-based
[1] = biological target: T1, β5i subunit of the 20S proteasome (Homo sapiens, UniProt P20618+P28062); test: Proteasome inhibitory activity, β5i subunit (Raji cells treated with compound, lysed, Ac-ANW-AMC substrate); conditions: proteasome from Raji cells incubated with compound 4 h
T1 construct: The proteasome tested in the present disclosure was derived from Raji cells; endogenous in cells; host or cells: Raji cells
From the text: (§1) In the present disclosure, the fluorescent peptide substrate Ac-Ala-Asn-Trp-AMC (abbreviated as Ac-ANW-AMC) and the […] kit containing a fluorescent peptide substrate Suc-Leu-Leu-Val-Tyr-AMC (abbreviated as Suc-LLVY-AMC) (Promega, Item No. G8660) were used to detect the activities of the β5i subunit and β5c subunit of the 20S proteasome, respectively.
(§2) The proteasome tested in the present disclosure was derived from Raji cells, the fluorescent substrate Ac-ANW-AMC was purchased from Roche company, and other reagents were purchased from Sigma company. The experimental system was divided into two parts of cell lysis system and enzyme reaction system. […] The starting concentration of the compound (inhibitor) was 1 μM. It was diluted in a 3-fold serial dilution to a total of 8 concentrations, that is, the administration concentration can be 1 μM, 0.333 μM, 0.111 μM . . . , respectively, and the specific experimental process was described below.
(§3) Raji cells (1×10^6 cells) cryopreserved in liquid nitrogen were thawed rapidly in a water bath at 37° C. The cell pellet was transferred to a 15 mL centrifuge tube, added with 9 mL of fresh medium (Gibco RPMI1640 added with 10% fetal bovine serum and 1% double antibiotics), centrifuged at 120 g for 5 min, inoculated to 25 mL cell culture flasks, and passaged once every 2-3 days.
(§4) The compound was weighed and dissolved in DMSO to a concentration of 10 mM. The compound was then sequentially diluted to concentrations of 200 μM, 66.67 μM, 22.22 μM, 7.41 μM, 2.47 μM, 0.82 μM, 0.27 μM, and 0.091 μM with fresh medium. Raji cells in a good growth status were inoculated into a 48-well cell culture plate at 7×10^5 cells/mL.
(§5) Raji cells in a good growth status were taken and counted. They were then inoculated to a 48-well cell culture plate at 7×10^5 cells/mL. Each 5 μL of the various concentrations of diluted compounds above were taken and added to the culture plate inoculated with cells, and the lowest concentration of compound was 0 μM. The drug bortezomib (Velcade) and ONX-0914 were used as the positive control compounds. All cells were incubated at 37° C. for 4 h.
(§6) The compound-treated cells were sequentially transferred into 1.5 mL centrifuge tubes, centrifuged at 10000 rpm for 2 min, and the supernatants were removed. The cell pellet was resuspended in 1 mL of PBS, centrifuged at 10000 rpm for 2 min, and the supernatant was removed. Cells were resuspended by adding 100 μL of cell lysate (50 mM Tris of pH 7.5, 150 mM NaCl, 5 mM MgCl2, 5 mM ATP, 1 mM DTT, 0.01% NP-40, 1 mM Digitonin, and Cocktail), placed in an ice bath for 30 min, and centrifuged at 13000 rpm for 10 min.
(§7) 2 mg of fluorescent peptide substrate AC-ANW-AMC was dissolved in 424.7 μL of DMSO to obtain an 8 mM stock solution, and stored at −20° C. The stock solution was diluted 100-fold to a final concentration of […] for use in the reaction system. The fluorescent peptide substrate Suc-LLVY-AMC was prepared according to the instructions of the Promega kit.
(§8) Each 20 μL of the prepared proteasome solution above was added to a 96-well white luciferase microplate and added with 25 μL of AC-ANW-AM substrate buffer solution (50 mM Tris of pH 7.5, 150 mM NaCl, 5 mM MgCl2, 5 mM ATP, 80 uM Ac-ANW-AMC and 1 mM DTT) and 25 μL of Suc-LLVY-AMC substrate buffer solution for 10 min of reaction at 37° C. in the dark. Fluorescence values were read at 345 nm/445 nm by using a fluorence microplate reader.
(§9) The data were exported and the inhibition rate in percentage was calculated according to the following formula: Inhibition rate=(maximum signal value-compound signal value)/(maximum signal value−blank signal value)×100%.
(§10) Where the maximum signal was obtained from cell lysates treated with DMSO only, and the blank signal was obtained from wells containing only lysates.

[2] = biological target: T2, β5c subunit of the 20S proteasome (Homo sapiens, UniProt P20618+P28074); test: Proteasome inhibitory activity, β5c subunit (Raji cells treated with compound, lysed, Suc-LLVY-AMC substrate); conditions: proteasome from Raji cells incubated with compound 4 h
T2 construct: The proteasome tested in the present disclosure was derived from Raji cells; endogenous in cells; host or cells: Raji cells
From the text: as §1, §2, §3, §4, §5, §6, §7, §8, §9, §10

MM.1S cell strain = test: Inhibitory activity of cell strain (CellTiter-Glo); conditions: Homo sapiens, MM1.S, 72 h incubation
Experimental: The cells used in this experiment were MM.1S cell strain and the detection reagent was CellTiter-Glo (Promega). […] The experimental process was described below. MM.1S cells in the logarithmic growth phase and in a good status were digested into individual cells by trypsin, centrifuged to remove the supernatant, and counted. Cells were diluted and 100 μL of cell suspension per well was added to a 96-well enzyme-coated plate at 1×10^5 cells per well. The wells containing only RPMI1640 complete medium were set as blank control. The 96-well plate was transferred to a 37° C. incubator containing 5% CO2 for 24 h of incubation.
The compound was accurately weighed and dissolved in DMSO to a concentration of 10^−2 M. 10 μL of compound was pipetted to 190 μL of DMSO to given a 5×10^−4 M compound. 6 μL of the compound (5×10^−5 M) was pipetted to a new 96-well microplate containing 194 μL of RPMI1640 complete medium and diluted in a 3-fold gradient dilution. 50 μL of the diluted compound was transferred to the 96-well microplate containing the cells such that the final compound concentrations were 5×10^−7 M, 1.67×10^−7 M, 5.55×10^−8 M, 1.85×10^−8 M, 6.17×10^−9 M, 2.06×10^−9 M, 6.86×10^−10 M, 2.29×10^−10 M, and 0 M. For the 0 M, no compound was added, and the same concentration of DMSO was added. The marketed drug bortezomib was used as a positive control. The 96-well microplate added with compounds was placed in the 37° C. incubator for 72 h of incubation.
At the predetermined detection time, the 96-well microplate to be detected was placed at room temperature, added with 40 μL of detection reagent (CellTiter-Glo) per well, and covered with a dark lid or piece of aluminium foil. The contents were mixed on an orbit oscillator for 10 min for complete cell lysis, with a vibration speed of 150 rpm. Luminescence values were detected on a multifunctional microplate reader (BioTek Synergy H1 Hybrid Multi-Mode Reade).
The data were exported and the percentage inhibition was calculated according to the following formula: Inhibition rate=(maximum signal value-compound signal value)/(maximum signal value−blank signal value)×100%, • wherein maximum signal was obtained from alone DMSO-treated cells, and blank signal was obtained from wells containing only culture medium.

SMILES | IC50 [1] [nM] | IC50 [2] [nM] | IC50 (MM.1S cell strain) [nM]
CC(C(=O)NCc1cccc(-c2ccccc2)n1)C(=O)N[C@@H](Cc1ccccc1)B(O)O (stereo partly drawn) [Example 1, ((1R)-1-(2-methyl-3-oxo-3-(((6-phenylpyridin-2-yl)methyl)amino)propionylamino)-2-phenylethyl)boric acid] | 50 to 200 | 50 to 200 | 50 to 200
COc1cccc(CNC(=O)C(CC2CC2)C(=O)N[C@@H](Cc2ccccc2)B(O)O)c1 (stereo partly drawn) [Example 3, ((1R)-1-(2-(cyclopropylmethyl)-3-((3-methoxybenzyl)amino)-3-oxopropionylamimo)-2-phenylethyl)boric acid] | ≤ 50 | ≤ 50 | ≤ 50
O=C(/C=C/C(=O)N[C@@H](Cc1ccccc1)B(O)O)Nc1ccccc1 [Example 8] | 50 to 200 | – | 50 to 200
COc1cccc(CNC(=O)C(C)C(=O)N[C@@H](Cc2coc3ccccc23)B(O)O)c1 (stereo partly shown) [Example 9] | ≤ 50 | ≤ 50 | ≤ 50
Cc1ccc(CNC(=O)/C=C/C(=O)N[C@@H](Cc2ccc(C)cc2)B(O)O)cc1 [Example 10] | 50 to 200 | 50 to 200 | 200 to 500
CC(C)C[C@H](NC(=O)/C=C/C(=O)NCc1cccc(-c2ccccc2)n1)B(O)O [Example 13, (R,E)-(3-methyl-1-(4-oxo-4-(((6-phenylpyridin-2-yl)methyl)amino)but-2-enamido)butyl)boric acid] | 50 to 200 | 50 to 200 | 50 to 200
O=C(/C=C/C(=O)N[C@@H](Cc1ccccc1)B(O)O)NCc1cccc(-c2ccccc2)n1 [Example 14, (R,E)-(1-(4-oxo-4-(((6-phenylpyridin-2-yl)methyl)amino)but-2-enamido)-2-phenylethyl)boric acid] | 50 to 200 | 50 to 200 | 50 to 200
O=C(CCC(=O)N[C@@H](Cc1ccccc1)B(O)O)NCc1ccccc1 [Example 16, (R)-(1-(4-(benzylamino)-4-oxobutanoylamino)-2-phenylethyl)boric acid] | ≤ 50 | 50 to 200 | 200 to 500
O=C(CC(=O)N[C@@H](Cc1coc2ccccc12)B(O)O)NCc1cccc(-c2ccccc2)c1 [Example 22, (R)-(1-(3-(([1,1′-biphenyl]-3-ylmethyl)amino)-3-oxopropionamido)-2-(benzofuran-3-yl)ethyl)boric acid] | ≤ 50 | ≤ 50 | ≤ 50
Cc1ccc(C[C@H](NC(=O)CC(=O)NCc2cccc(-c3ccccc3)c2)B(O)O)cc1 [Example 27, (R)-(1-(3-(([1,1′-biphenyl]-3-ylmethyl)amino)-3-oxopropionamido)-2-(p-tolyl)ethyl)boric acid] | ≤ 50 | ≤ 50 | ≤ 50
CC(C)C[C@H](NC(=O)C(C)C(=O)NCc1ccccc1)B(O)O (stereo partly drawn) [Example 28, ((1R)-1-(3-(benzylamino)-2-methyl-3-oxopropionamido)-3-methylbutyl)boric acid] | 50 to 200 | 50 to 200 | 50 to 200
CC(C(=O)NCc1ccccc1)C(=O)N[C@@H](Cc1ccccc1)B(O)O (stereo partly drawn) [Example 29, ((1R)-1-(3-(benzylamino)-2-methyl-3-oxopropionamido)-2-phenylethyl)boric acid] | ≤ 50 | ≤ 50 | 50 to 200
COc1cccc(CNC(=O)C(C)C(=O)N[C@@H](Cc2ccc(-c3ccccc3)cc2)B(O)O)c1 (stereo partly drawn) [Example 36, ((1R)-2-([1,1′-biphenyl]-4-yl)-1-(3-((3-methoxybenzyl)amino)-2-methyl-3-oxopropionamido)ethyl)boric acid] | ≤ 50 | ≤ 50 | ≤ 50
Cc1ccc(C[C@H](NC(=O)C(C)C(=O)NCc2ccccc2)B(O)O)cc1 (stereo partly drawn) [Example 38, ((1R)-1-(3-(benzylamino)-2-methyl-3-oxopropionamido)-2-(p-tolyl)ethyl)boric acid] | 50 to 200 | 50 to 200 | 200 to 500
Cc1ccc(C[C@H](NC(=O)C(C)C(=O)Nc2ccccc2)B(O)O)cc1 (stereo partly drawn) [Example 40, ((1R)-1-(2-methyl-3-oxo-3-(phenylamino)propionamido)-2-(p-tolyl)ethyl)boric acid] | ≤ 50 | 50 to 200 | 50 to 200
Cc1ccc(C[C@H](NC(=O)C(F)(F)C(=O)NCc2cccc(OC(F)(F)F)c2)B(O)O)cc1 [Example 98, (R)-(1-(2,2-difluoro-3-oxo-3-((3-(trifluoromethoxy)benzyl)amino)propionamido)-2-(p-tolyl)ethyl)boric acid] | – | – | 200 to 500
COc1cccc(CCNC(=O)C(F)C(=O)N[C@@H](Cc2coc3ccccc23)B(O)O)c1 (stereo partly drawn) [Example 101, ((1R)-2-(Benzofuran-3-yl)-1-(2-fluoro-3-((3-methoxyphenylethyl)amino)-3-oxopropionamido)ethyl)boric acid] | – | – | ≤ 50
COc1cccc(CNC(=O)C(F)C(=O)N[C@@H](Cc2ccccc2)B(O)O)c1 (stereo partly drawn) [Example 102, ((1R)-1-(2-fluoro-3-((3-methoxybenzyl)amino)-3-oxopropionamido)-2-phenylethyl)boric acid] | – | – | ≤ 50
COc1cccc(CNC(=O)C(F)C(=O)N[C@@H](Cc2ccc(C)cc2)B(O)O)c1 (stereo partly drawn) [Example 103, ((1R)-1-(2-fluoro-3-((3-methoxybenzyl)amino)-3-oxopropionamido)-2-(p-tolyl)ethyl)boric acid] | – | – | ≤ 50
COc1cccc(CNC(=O)C(F)C(=O)N[C@@H](Cc2coc3ccccc23)B(O)O)c1 (stereo partly drawn) [Example 104, ((1R)-2-(benzofuran-3-yl)-1-(2-fluoro-3-((3-methoxybenzyl)amino)-3-oxopropionamido)ethyl)boric acid] | – | – | ≤ 50
